Laboratory results reported in patent publication US20260294769A1, “ASCORBIC ACID DERIVATIVES AND COSMETIC THEREOF” (SEIWA KASEI COMPANY, LIMITED, priority 2023, published 2026).
Where two headings read alike, the source gives them in different places.

Tests used:
[1] = tested on: Normal human dermal fibroblasts (NHDF); assay: Hyaluronic acid production promoting effect (ELISA of hyaluronic acid in supernatant); assay type: cell-based; settings: 10 mM or less, 48 hours, control group set to 100%, N=3
Protocol: Normal human dermal fibroblasts (NHDF) were prepared in D-MEM containing 5% (v/v) fetal bovine serum to a cell density of 2.5×10^4 cells/well, and then pre-incubated on a 96-well plate for 24 hours. After removing the medium, samples prepared in serum-free D-MEM were added to each well and cultured for 48 hours. After the culture was completed, the amount of hyaluronic acid in the supernatant was quantified by ELISA. Measurements were performed in triplicate (N=3).
The amount of hyaluronic acid produced when the sample was measured at a concentration of 10 mM or less was compared with that of the control group, and the results (% values when the control group is set to 100%) are shown in Tables 18 to 20 based on the following criteria.

[2] = Stability Test-2: coloration of cream stored at 50° C.; assay type: physicochemical; settings: 10 panelists
Excerpt: • Evaluation was made by 10 panelists according to the following criteria. • 3: Almost no change compared to immediately after preparation. • 2: Color changes compared to immediately after preparation. • 1: Strongly colored compared to immediately after preparation. • Based on the results of the above evaluation, the following classification was made:
(§1) For each of the samples of Synthesis Examples 9 to 32, (a) and (b) shown in Table 12 were each heated and mixed. After cooling, (c) shown in Table 12 was added to prepare a cream with a pH of 7 or 9. […] The odor and coloration were also evaluated according to the same method and criteria as in Test Example 1. The results regarding the residual rate are shown in Tables 13 and 14, and the results regarding the odor and coloration are shown in Tables 15 and 16.

[3] = Stability Test-2: residual rate in cream of pH 7 or 9 stored at 50° C.; assay type: physicochemical
Protocol: as §1

[4] = Stability Test-2: odor of cream stored at 50° C.; assay type: physicochemical; settings: 10 panelists
Excerpt: • Evaluation was made by 10 panelists according to the following criteria. • 3: Almost odorless. • 2: There is a slight strange odor. • 1: A strong odor is detected. • Based on the results of the above evaluation, the following classification was made: • ◯: Total score of 10 panelists is 25 or more • Δ: Total score of 10 panelists is 16-24 • x: The total score of 10 panelists is 15 or less
as §1

[5] = Stability Test-1: residual rate of 1% aqueous solutions stored at 50° C. (HPLC); assay type: physicochemical; settings: water, 1% aqueous solution; for remaining at 336 h: after 2 weeks, read-out: Residual Rate; for remaining at 672 h: after 4 weeks
Protocol: For each of the samples of Synthesis Examples 1 to 6, 1% aqueous solutions were adjusted to pH 3, 5, 7, 8, and 9 with a dilute potassium hydroxide aqueous solution, and then placed in 50 mL screw tubes and sealed. […] Furthermore, the odor and coloration of the samples adjusted to pH 7 were evaluated based on the following methods and criteria, and the results are shown in Table 11.
• ⊚: 80% or more • ◯: 50% or more, less than 80% • Δ: 30% or more, less than 50% • x: Less than 30%

[6] = cream pH 7, 50° C., after 2 weeks, 20160 min
[7] = cream pH 7, 50° C., after 4 weeks, 40320 min
[8] = cream pH 9, 50° C., after 2 weeks, 20160 min
[9] = cream pH 9, 50° C., after 4 weeks, 40320 min

Row | Structure (SMILES) | Hyaluronic acid production-promoting effect [1] | Coloration ([2]; after 2 weeks) | Coloration ([2]; after 4 weeks) | Residual Rate [3, 6] | Residual Rate [3, 7] | Residual Rate [3, 8] | Residual Rate [3, 9] | Odor ([4]; after 2 weeks) | Odor ([4]; after 4 weeks) | further results
1 | CCCCCCCCCCCCCCCC(=O)OC[C@H](O)[C@H]1OC(=O)C(OP(=O)(O)O)=C1O [Ascorbyl phosphate 3Na palmitate, reference compound] | ± (<100%) |  |  |  |  |  |  |  |  | 
2 | CCCCCCCCC(CCCCCC)C(=O)OC[C@H](OC(=O)C(CCCCCC)CCCCCCCC)[C@H]1OC(=O)C(OC(=O)C(CCCCCC)CCCCCCCC)=C1OC(=O)C(CCCCCC)CCCCCCCC (stereo partly shown) [Ascorbyl tetrahexyldecanoate, reference compound] |  | ◯ (Total score of 10 panelists is 25 or more) | Δ (Total score of 10 panelists is 16-24) | ∘ (85% or more, less than 95%) | x (Less than 85%) | ∘ (85% or more, less than 95%) | x (Less than 85%) | ◯ (Total score of 10 panelists is 25 or more) | Δ (Total score of 10 panelists is 16-24) | 
3 | O=C1O[C@H]([C@@H](O)CO)C(OCC(O)CO)=C1OCC(O)CO (stereo partly shown) [Bisglyceryl ascorbic acid, reference compound] |  |  |  |  |  |  |  |  |  | remaining at 336 h ([5]; pH 3, 50° C.): ≥ 80%; remaining at 672 h ([5]; pH 3, 50° C.): ≥ 80%; remaining at 336 h ([5]; pH 5, 50° C.): ≥ 80%; remaining at 672 h ([5]; pH 5, 50° C.): ≥ 80%; remaining at 336 h ([5]; pH 7, 50° C.): < 30%; remaining at 672 h ([5]; pH 7, 50° C.): < 30%; remaining at 336 h ([5]; pH 8, 50° C.): < 30%; remaining at 672 h ([5]; pH 8, 50° C.): < 30%; remaining at 336 h ([5]; pH 9, 50° C.): < 30%; remaining at 672 h ([5]; pH 9, 50° C.): < 30%
4 | CCCC(=O)OCC(O)C1OC(=O)C2=C1OCCCCO2 (stereo not shown) [Synthesis Example 9, 6-O-butanoyl-2,3-O-(1,4-butanediyl) ascorbic acid] | ++ (120%<) | ◯ (Total score of 10 panelists is 25 or more) | ◯ (Total score of 10 panelists is 25 or more) | ⊚ (95% or more) | ⊚ (95% or more) | ⊚ (95% or more) | ⊚ (95% or more) | ◯ (Total score of 10 panelists is 25 or more) | Δ (Total score of 10 panelists is 16-24) | 
5 | CCCCCCCC(=O)OCC(O)C1OC(=O)C2=C1OCCCCO2 (stereo not shown) [Synthesis Example 11, 6-O-octanoyl-2,3-O-(1,4-butanediyl) ascorbic acid] | ++ (120%<) | ◯ (Total score of 10 panelists is 25 or more) | ◯ (Total score of 10 panelists is 25 or more) | ⊚ (95% or more) | ⊚ (95% or more) | ⊚ (95% or more) | ∘ (85% or more, less than 95%) | ◯ (Total score of 10 panelists is 25 or more) | Δ (Total score of 10 panelists is 16-24) | 
6 | CCCCCCCCCCCCCCCC(=O)OCC(OC(=O)CCCCCCCCCCCCCCC)C1OC(=O)C2=C1OCCCCO2 (stereo not shown) [Synthesis Example 16, 5,6-O-dipalmitoyl-2,3-O-(1,4-butanediyl) ascorbic acid] | ++ (120%<) | ◯ (Total score of 10 panelists is 25 or more) | ◯ (Total score of 10 panelists is 25 or more) | ⊚ (95% or more) | ⊚ (95% or more) | ⊚ (95% or more) | ⊚ (95% or more) | ◯ (Total score of 10 panelists is 25 or more) | Δ (Total score of 10 panelists is 16-24) | 
7 | CC(C)CCCCCCCCCCCCCCC(=O)OC[C@H](OC(=O)CCCCCCCCCCCCCCC(C)C)[C@H]1OC(=O)C2=C1OCCCCO2 [Synthesis Example 18, 5,6-O-diisostearoyl-2,3-O-(1,4-butanediyl) ascorbic acid] | ++ (120%<) | ◯ (Total score of 10 panelists is 25 or more) | ◯ (Total score of 10 panelists is 25 or more) | ⊚ (95% or more) | ⊚ (95% or more) | ⊚ (95% or more) | ⊚ (95% or more) | ◯ (Total score of 10 panelists is 25 or more) | Δ (Total score of 10 panelists is 16-24) | 
8 | CCCCCCCC(=O)OC[C@H](OC(=O)CCC)[C@H]1OC(=O)C2=C1OCCCCO2 [Synthesis Example 19, 5-O-butanoyl-6-O-octanoyl-2,3-O-(1,4-butanediyl) ascorbic acid] |  | ◯ (Total score of 10 panelists is 25 or more) | ◯ (Total score of 10 panelists is 25 or more) | ⊚ (95% or more) | ⊚ (95% or more) | ⊚ (95% or more) | ⊚ (95% or more) | ◯ (Total score of 10 panelists is 25 or more) | Δ (Total score of 10 panelists is 16-24) | 
9 | CCCC(=O)OCC(O)C1OC(=O)C2=C1OCCCO2 (stereo not shown) [Synthesis Example 20, 6-O-butanoyl-2,3-O-(1,3-propanediyl) ascorbic acid] | ++ (120%<) | ◯ (Total score of 10 panelists is 25 or more) | ◯ (Total score of 10 panelists is 25 or more) | ⊚ (95% or more) | ⊚ (95% or more) | ⊚ (95% or more) | ⊚ (95% or more) | ◯ (Total score of 10 panelists is 25 or more) | Δ (Total score of 10 panelists is 16-24) | 
10 | CCCCCCCCCCCCCCCC(=O)OCC(OC(=O)CCC)C1OC(=O)C2=C1OCCCO2 (stereo not shown) [Synthesis Example 30, 5-O-butanoyl-6-O-palmitoyl-2,3-O-(1,3-propanediyl) ascorbic acid] |  | ◯ (Total score of 10 panelists is 25 or more) | ◯ (Total score of 10 panelists is 25 or more) | ⊚ (95% or more) | ⊚ (95% or more) | ⊚ (95% or more) | ⊚ (95% or more) | ◯ (Total score of 10 panelists is 25 or more) | Δ (Total score of 10 panelists is 16-24) | 
11 | CC(C)CCCCCCCCCCCCCCC(=O)OCC(OC(=O)CCCCCCCCCCCCCCC(C)C)C1OC(=O)C2=C1OCCO2 (stereo not shown) [Synthesis Example 32, 5,6-O-diisostearoyl-2,3-O-(1,2-ethanediyl) ascorbic acid] |  | ◯ (Total score of 10 panelists is 25 or more) | ◯ (Total score of 10 panelists is 25 or more) | ⊚ (95% or more) | ⊚ (95% or more) | ⊚ (95% or more) | ⊚ (95% or more) | ◯ (Total score of 10 panelists is 25 or more) | Δ (Total score of 10 panelists is 16-24) | 
12 | CC1(C)OCC(C2OC(=O)C3=C2OCCCCO3)O1 (stereo not shown) [Synthesis Example 35, 5,6-O-isopropylidene-2,3-O-(1,4-butanediyl) ascorbic acid] | ++ (120%<) |  |  |  |  |  |  |  |  | 
13 | CC1(C)OCC(C2OC(=O)C3=C2OCCCO3)O1 (stereo not shown) [Synthesis Example 36, 5,6-O-isopropylidene-2,3-O-(1,3-propanediyl) ascorbic acid] | ++ (120%<) |  |  |  |  |  |  |  |  | 
14 | O=C1OC(C2COC(c3ccccc3)O2)C2=C1OCCCO2 (stereo not shown) [Synthesis Example 38, 5,6-O-(phenylmethylene)-2,3-O-(1,3-propanediyl) ascorbic acid] | ++ (120%<) |  |  |  |  |  |  |  |  | 
